Patent US20260263426A1, “DIAMIDINE ANALOGS FOR ANTI-INFLAMMATORY USE” (MONTDOREX INC., priority 2023, published 2026)
pIC50: −log10 of the molar value.

Columns and labels:
endo-exonuclease = experiment: inhibition of endo-exonuclease activity, in-vitro; assay type: biochemical; conditions: read-out: EE IC50
Description: The inhibition of endo-exonuclease has been measured using pentamidine and a pentamidine analog where the center site of pentamidine (the carbon backbone) has been altered. Endo-exonuclease inhibition has been tested in-vitro.

HCT-116 = HCT-116 IC50 (Table 1); assay type: cell-based; conditions: Homo sapiens
[1] = tested on: non-alcoholic fatty liver disease; conditions: mice; Zhao E et al (2017) Hepatology 66:922-935; cited from earlier work

Compound `N=C(N)c1ccc(OCCCCCCCCCCOc2ccc(C(=N)N)cc2)cc1` [Decamidine-isethionate] has a pIC50 (endo-exonuclease) of 4.63 and a pIC50 (HCT-116) of 5.21.
For `Cl.Cl.N=C(N)c1ccc(OCCCCCOc2ccc(C(=N)N)cc2)cc1` [Pentamidine HCl], the pIC50 (endo-exonuclease) is given as 4.27, the body weight [1] is given as “reduces” and the food intake [1] is given as “reduces”. The hepatic triglycerides [1] was “reduces”, the “serum ALT” value [1] was “reduces” and the pIC50 (HCT-116) was 3.97.
